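Briefly, cells in 96-well plates were exposed to five compound concentrations for 48 h, and endpoints were estimated by linear interpolation. GI50 = concentration required for 50% inhibition of growth. TGI is the concentration that stops growth completely.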
Legend:
Assay in all cases: NCI anticancer screen, dose series, 48 h
786-0 renal = tested on: 786-0 renal
A498 renal = tested on: A498 renal
A549 NSCLC = tested on: A549 NSCLC
ACHN renal = tested on: ACHN renal
BT-549 breast = tested on: BT-549 breast
CAKI-1 renal = tested on: CAKI-1 renal
CCRF-CEM leukemia = tested on: CCRF-CEM leukemia
COLO 205 colon = tested on: COLO 205 colon
DU-145 prostate = tested on: DU-145 prostate
EKVX NSCLC = tested on: EKVX NSCLC
HCC-2998 colon = tested on: HCC-2998 colon
HCT-116 colon = tested on: HCT-116 colon
HCT-15 colon = tested on: HCT-15 colon
HL-60(TB) leukemia = tested on: HL-60(TB) leukemia
HOP-62 NSCLC = tested on: HOP-62 NSCLC
HOP-92 NSCLC = tested on: HOP-92 NSCLC
HS 578T breast = tested on: HS 578T breast
HT29 colon = tested on: HT29 colon
IGROV1 ovarian = tested on: IGROV1 ovarian
K-562 leukemia = tested on: K-562 leukemia
KM12 colon = tested on: KM12 colon
LOX IMVI melanoma = tested on: LOX IMVI melanoma
M14 melanoma = tested on: M14 melanoma
MALME-3M melanoma = tested on: MALME-3M melanoma
MCF7 breast = tested on: MCF7 breast
MDA-MB-231 breast = tested on: MDA-MB-231 breast
MDA-MB-435 = tested on: MDA-MB-435
MOLT-4 leukemia = tested on: MOLT-4 leukemia
NCI-H226 lung = tested on: NCI-H226 lung
NCI-H23 lung = tested on: NCI-H23 lung
NCI-H460 lung = tested on: NCI-H460 lung
NCI-H522 lung = tested on: NCI-H522 lung
NCI/ADR-RES ovarian = tested on: NCI/ADR-RES ovarian
OVCAR-3 ovarian = tested on: OVCAR-3 ovarian
OVCAR-4 ovarian = tested on: OVCAR-4 ovarian
OVCAR-5 ovarian = tested on: OVCAR-5 ovarian
OVCAR-8 ovarian = tested on: OVCAR-8 ovarian
PC-3 prostate = tested on: PC-3 prostate
RPMI-8226 leukemia = tested on: RPMI-8226 leukemia
RXF 393 renal = tested on: RXF 393 renal
SF-268 CNS = tested on: SF-268 CNS
SF-295 CNS = tested on: SF-295 CNS
SF-539 CNS = tested on: SF-539 CNS
SK-MEL-2 melanoma = tested on: SK-MEL-2 melanoma
SK-MEL-28 melanoma = tested on: SK-MEL-28 melanoma
SK-MEL-5 melanoma = tested on: SK-MEL-5 melanoma
SK-OV-3 ovarian = tested on: SK-OV-3 ovarian
SNB-19 CNS = tested on: SNB-19 CNS
SNB-75 CNS = tested on: SNB-75 CNS
SR leukemia = tested on: SR leukemia
SW-620 colon = tested on: SW-620 colon
T-47D breast = tested on: T-47D breast
TK-10 renal = tested on: TK-10 renal
U251 CNS = tested on: U251 CNS
UACC-257 melanoma = tested on: UACC-257 melanoma
UACC-62 melanoma = tested on: UACC-62 melanoma
UO-31 renal = tested on: UO-31 renal

`CCCc1cc(=O)n2c(C(=O)Nc3cccc(C(=O)OCC)c3)c(C(=O)Nc3ccc(F)cc3)sc2n1` gave a GI50 (786-0 renal) of 1.43 µM, a TGI (786-0 renal) of 5.25 µM and a GI50 (A498 renal) of 8.57 µM. For the same compound, the TGI (A498 renal) was 32.2 µM, the GI50 (A549 NSCLC) was 4.32 µM and the TGI (A549 NSCLC) was 24.1 µM. For the same compound, the GI50 (ACHN renal) was 4.01 µM, the TGI (ACHN renal) was 109 µM and the GI50 (BT-549 breast) was > 140 µM. The TGI (BT-549 breast) was > 140 µM, the GI50 (CAKI-1 renal) was 4.95 µM and the TGI (CAKI-1 renal) was 28.2 µM. The GI50 (CCRF-CEM leukemia) was > 140 µM, the TGI (CCRF-CEM leukemia) was > 140 µM and the GI50 (COLO 205 colon) was 70.8 µM. For the same compound, the TGI (COLO 205 colon) was > 140 µM, the GI50 (DU-145 prostate) was 58.8 µM and the TGI (DU-145 prostate) was > 140 µM. For the same compound, the GI50 (EKVX NSCLC) was > 140 µM, the TGI (EKVX NSCLC) was > 140 µM and the GI50 (HCC-2998 colon) was > 140 µM. For the same compound, the TGI (HCC-2998 colon) was > 140 µM, the GI50 (HCT-116 colon) was 1.06 µM and the TGI (HCT-116 colon) was > 140 µM. The GI50 (HCT-15 colon) was 125 µM, the TGI (HCT-15 colon) was > 140 µM and the GI50 (HL-60(TB) leukemia) was > 140 µM. The TGI (HL-60(TB) leukemia) was > 140 µM, the GI50 (HOP-62 NSCLC) was 3.54 µM and the TGI (HOP-62 NSCLC) was 28.8 µM. The GI50 (HOP-92 NSCLC) was 1.33 µM, the TGI (HOP-92 NSCLC) was 7.99 µM and the GI50 (HS 578T breast) was 1.3 µM. The TGI (HS 578T breast) was 6.37 µM, the GI50 (HT29 colon) was 87.9 µM and the TGI (HT29 colon) was > 140 µM. It also gave a GI50 (IGROV1 ovarian) of 24.8 µM, a TGI (IGROV1 ovarian) of 65.9 µM and a GI50 (K-562 leukemia) of 60.3 µM. For the same compound, the TGI (K-562 leukemia) was > 140 µM, the GI50 (KM12 colon) was 42.5 µM and the TGI (KM12 colon) was > 140 µM. The GI50 (LOX IMVI melanoma) was 6.65 µM, the TGI (LOX IMVI melanoma) was > 140 µM and the GI50 (M14 melanoma) was 9.6 µM. The TGI (M14 melanoma) was 86 µM, the GI50 (MALME-3M melanoma) was 13.1 µM and the TGI (MALME-3M melanoma) was 58 µM. The GI50 (MCF7 breast) was > 140 µM, the TGI (MCF7 breast) was > 140 µM and the GI50 (MDA-MB-231 breast) was 1.6 µM. The TGI (MDA-MB-231 breast) was 7.2 µM, the GI50 (MDA-MB-435) was > 140 µM and the TGI (MDA-MB-435) was > 140 µM. For the same compound, the GI50 (MOLT-4 leukemia) was > 140 µM, the TGI (MOLT-4 leukemia) was > 140 µM and the GI50 (NCI-H226 lung) was 5.83 µM. The TGI (NCI-H226 lung) was 27.7 µM, the GI50 (NCI-H23 lung) was 66.3 µM and the TGI (NCI-H23 lung) was > 140 µM. For the same compound, the GI50 (NCI-H460 lung) was 13.3 µM, the TGI (NCI-H460 lung) was > 140 µM and the GI50 (NCI-H522 lung) was 65 µM. The TGI (NCI-H522 lung) was > 140 µM, the GI50 (NCI/ADR-RES ovarian) was 22.3 µM and the TGI (NCI/ADR-RES ovarian) was > 140 µM. It also gave a GI50 (OVCAR-3 ovarian) of 3.17 µM, a TGI (OVCAR-3 ovarian) of 7.75 µM and a GI50 (OVCAR-4 ovarian) of 3.27 µM. The TGI (OVCAR-4 ovarian) was 20.9 µM, the GI50 (OVCAR-5 ovarian) was 136 µM and the TGI (OVCAR-5 ovarian) was > 140 µM. It also gave a GI50 (OVCAR-8 ovarian) of 3.63 µM, a TGI (OVCAR-8 ovarian) of 15 µM and a GI50 (PC-3 prostate) of 45.9 µM. For the same compound, the TGI (PC-3 prostate) was > 140 µM, the GI50 (RPMI-8226 leukemia) was 6.2 µM and the TGI (RPMI-8226 leukemia) was > 140 µM. For the same compound, the GI50 (RXF 393 renal) was 5.3 µM, the TGI (RXF 393 renal) was 13.4 µM and the GI50 (SF-268 CNS) was 26.6 µM. The TGI (SF-268 CNS) was 128 µM, the GI50 (SF-295 CNS) was 44.6 µM and the TGI (SF-295 CNS) was > 140 µM. For the same compound, the GI50 (SF-539 CNS) was 23.8 µM, the TGI (SF-539 CNS) was > 140 µM and the GI50 (SK-MEL-2 melanoma) was 6.83 µM. The TGI (SK-MEL-2 melanoma) was 27.6 µM, the GI50 (SK-MEL-28 melanoma) was 133 µM and the TGI (SK-MEL-28 melanoma) was > 140 µM. The GI50 (SK-MEL-5 melanoma) was 75.1 µM, the TGI (SK-MEL-5 melanoma) was > 140 µM and the GI50 (SK-OV-3 ovarian) was 23.9 µM. It also gave a TGI (SK-OV-3 ovarian) of 75 µM, a GI50 (SNB-19 CNS) of 25.5 µM and a TGI (SNB-19 CNS) of 132 µM. For the same compound, the GI50 (SNB-75 CNS) was 3.54 µM, the TGI (SNB-75 CNS) was 17.5 µM and the GI50 (SR leukemia) was 51.7 µM. For the same compound, the TGI (SR leukemia) was > 140 µM, the GI50 (SW-620 colon) was 12 µM and the TGI (SW-620 colon) was > 140 µM. For the same compound, the GI50 (T-47D breast) was 13.5 µM, the TGI (T-47D breast) was > 140 µM and the GI50 (TK-10 renal) was 5.72 µM. The TGI (TK-10 renal) was 22.1 µM, the GI50 (U251 CNS) was 3.55 µM and the TGI (U251 CNS) was 48.6 µM. For the same compound, the GI50 (UACC-257 melanoma) was 54.1 µM, the TGI (UACC-257 melanoma) was > 140 µM and the GI50 (UACC-62 melanoma) was 48.4 µM. The TGI (UACC-62 melanoma) was > 140 µM, the GI50 (UO-31 renal) was 7.27 µM and the TGI (UO-31 renal) was 42.6 µM.

Reference: PubChem BioAssay (NCI)
